Assay results published in the NIST ThermoML archive (doi:10.1007/s10765-006-0033-6).
± gives the expanded uncertainty stated by the source.

Experiment: compressibility factor (dimensionless); xn = mol fraction of the nth substance listed
Conditions: Gas, Other PVT measurement

[N-]=[N+]=O [nitrous oxide] + FCF
Conditions	compressibility factor
323.44 K, 237 kPa, x1 = 0.5714	0.9864 ± 0.0005
323.44 K, 254.6 kPa, x1 = 0.745	0.9868 ± 0.0005
323.44 K, 352.4 kPa, x1 = 0.5714	0.9806 ± 0.0005
323.44 K, 378.8 kPa, x1 = 0.745	0.9812 ± 0.0005
323.44 K, 522.4 kPa, x1 = 0.5714	0.9714 ± 0.0005
323.44 K, 561.8 kPa, x1 = 0.745	0.9727 ± 0.0005
323.44 K, 770.4 kPa, x1 = 0.5714	0.9577 ± 0.0005
323.44 K, 829.3 kPa, x1 = 0.745	0.9598 ± 0.0005
323.44 K, 1128 kPa, x1 = 0.5714	0.9372 ± 0.0005
323.44 K, 1215.8 kPa, x1 = 0.745	0.9406 ± 0.0005
323.44 K, 1633.3 kPa, x1 = 0.5714	0.9071 ± 0.0005
323.44 K, 1764.2 kPa, x1 = 0.745	0.9123 ± 0.0005
323.44 K, 2325.6 kPa, x1 = 0.5714	0.8633 ± 0.0004
323.44 K, 2519.5 kPa, x1 = 0.745	0.8708 ± 0.0004
323.44 K, 3228.5 kPa, x1 = 0.5714	0.8011 ± 0.0004
323.44 K, 3513.7 kPa, x1 = 0.745	0.8117 ± 0.0004
323.44 K, 4726.6 kPa, x1 = 0.745	0.7299 ± 0.0004
323.45 K, 119.4 kPa, x1 = 0.4108	0.9909 ± 0.0005
323.45 K, 128.6 kPa, x1 = 0.3236	0.9894 ± 0.0005
323.45 K, 141.9 kPa, x1 = 0.2465	0.9883 ± 0.0005
323.45 K, 178 kPa, x1 = 0.4108	0.9879 ± 0.0005
323.45 K, 191.7 kPa, x1 = 0.3236	0.986 ± 0.0005
323.45 K, 211.5 kPa, x1 = 0.2465	0.984 ± 0.0005
323.45 K, 265 kPa, x1 = 0.4108	0.9831 ± 0.0005
323.45 K, 285.1 kPa, x1 = 0.3236	0.9802 ± 0.0005
323.45 K, 314.1 kPa, x1 = 0.2465	0.9771 ± 0.0005
323.45 K, 393.4 kPa, x1 = 0.4108	0.9754 ± 0.0005
323.45 K, 422.8 kPa, x1 = 0.3236	0.9714 ± 0.0005
323.45 K, 464.8 kPa, x1 = 0.2465	0.9664 ± 0.0005
323.45 K, 581.5 kPa, x1 = 0.4108	0.9636 ± 0.0005
323.45 K, 623.6 kPa, x1 = 0.3236	0.9578 ± 0.0005
323.45 K, 683.5 kPa, x1 = 0.2465	0.9499 ± 0.0005
323.45 K, 854.1 kPa, x1 = 0.4108	0.946 ± 0.0005
323.45 K, 912.9 kPa, x1 = 0.3236	0.9372 ± 0.0005
323.45 K, 996.3 kPa, x1 = 0.2465	0.9254 ± 0.0005
323.45 K, 1242.3 kPa, x1 = 0.4108	0.9198 ± 0.0005
323.45 K, 1321.6 kPa, x1 = 0.3236	0.9069 ± 0.0005
323.45 K, 1433.4 kPa, x1 = 0.2465	0.8899 ± 0.0004
323.45 K, 1781.4 kPa, x1 = 0.4108	0.8816 ± 0.0004
323.45 K, 1881.4 kPa, x1 = 0.3236	0.8629 ± 0.0004
323.45 K, 2021.2 kPa, x1 = 0.2465	0.8388 ± 0.0004
323.45 K, 2499.7 kPa, x1 = 0.4108	0.8269 ± 0.0004
323.45 K, 2610.3 kPa, x1 = 0.3236	0.8003 ± 0.0004
343.77 K, 139.1 kPa, x1 = 0.2266	0.9898 ± 0.0005
